# Experimental data from patent US6355799B1, “Substituted benzene compounds, process for their preparation, and herbicidal and defoliant compositions containing them” (ISK Americas Incorporated, priority 1997, dated 2002).
# Tests used:
# Type in all cases: in vivo
# [1] = test system: upland rice (Oryza sp., var. Tebonnet, RICE); experiment: Pre-emerge test, crop safety; conditions: rated 14 days after application, 0 = no damage, 100 = complete death
# How it was run: (§1)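 Rating: 0–100 visual injury, 14 DAA. Application: acetone, 187 l/ha, 15–1000 g ai/ha, flat-fan track sprayer with nozzle 40–45 cm above soil or canopy. Post-emerge runs used 0.25% v/v surfactant on 2–3 leaf plants.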
# [2] = test system: field corn (Zea mays L., var. Dekalb 535, CORN); experiment: Pre-emerge test, crop safety; conditions: rated 14 days after application, 0 = no damage, 100 = complete death
# How it was run: as §1
# [3] = test system: ivyleaf morningglory (Ipomoea hederacea, IPOHE); experiment: Pre-emerge test, greenhouse herbicide activity screening; conditions: rated 14 days after application, 0 = no damage, 100 = complete death
# How it was run: (§2)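 Visual ratings on a 0-100 scale (0 no damage, 100 all plants dead) were taken at 14 days after treatment. Rates of 15-1000 g ai/ha in acetone, 187 l/ha, were sprayed onto soil one day after planting (pre-emerge) or onto 2-3 leaf plants with 0.25% v/v surfactant (post-emerge).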
# [4] = test system: barnyardgrass (Echinochloa crus-galli, ECHCG); experiment: as above; conditions: rated 14 days after application, 0 = no damage, 100 = complete death
# How it was run: as §2
# [5] = test system: lambsquarters (Chenopodium album, CHEAL); experiment: as above; conditions: rated 14 days after application, 0 = no damage, 100 = complete death
# How it was run: as §2
# [6] = test system: green foxtail (Setaria viridis, SETVI); experiment: as above; conditions: rated 14 days after application, 0 = no damage, 100 = complete death
# How it was run: as §2
# [7] = test system: velvetleaf (Abutilon theophrasti, ABUTH); experiment: as above; conditions: rated 14 days after application, 0 = no damage, 100 = complete death
# How it was run: as §2
# [8] = test system: sicklepod (Cassia obtusifolia, CASOB); experiment: as above; conditions: rated 14 days after application, 0 = no damage, 100 = complete death
# How it was run: as §2
# [9] = test system: large crabgrass (Digitaria sanguinalis, DIGSA); experiment: as above; conditions: rated 14 days after application, 0 = no damage, 100 = complete death
# How it was run: as §2
# [10] = test system: johnsongrass (Sorghum halepense, SORHA); experiment: as above; conditions: rated 14 days after application, 0 = no damage, 100 = complete death
# How it was run: as §2
# [11] = test system: ivyleaf morningglory (Ipomoea hederacea, IPOHE); experiment: Post-emerge test, greenhouse herbicide activity screening; conditions: post-emerge, 14 days after application, rating scale 0-100
# How it was run: (§3)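 Compounds in acetone were track-sprayed at 15-1000 g ai/ha (187 l/ha) on sandy loam pots: pre-emerge one day after seeding, post-emerge at 2-3 leaf stage with 0.25% v/v non-ionic surfactant. Phytotoxicity was rated 14 days later on a 0 (no damage) to 100 (complete death) scale.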
# [12] = test system: barnyardgrass (Echinochloa crus-galli, ECHCG); experiment: as above; conditions: post-emerge, 14 days after application, rating scale 0-100
# How it was run: as §3
# [13] = test system: redroot pigweed (Amaranthus retroflexus, AMARE); experiment: as above; conditions: post-emerge, 14 days after application, rating scale 0-100
# How it was run: as §3
# [14] = test system: common ragweed (Ambrosia artemisizfolia L., AMBEL); experiment: as above; conditions: post-emerge, 14 days after application, rating scale 0-100
# How it was run: as §3
# [15] = test system: lambsquarters (Chenopodium album, CHEAL); experiment: as above; conditions: post-emerge, 14 days after application, rating scale 0-100
# How it was run: as §3
# [16] = test system: green foxtail (Setaria viridis, SETVI); experiment: as above; conditions: post-emerge, 14 days after application, rating scale 0-100
# How it was run: as §3
# [17] = test system: velvetleaf (Abutilon theophrasti, ABUTH); experiment: as above; conditions: post-emerge, 14 days after application, rating scale 0-100
# How it was run: as §3
# [18] = test system: sicklepod (Cassia obtusifolia, CASOB); experiment: as above; conditions: post-emerge, 14 days after application, rating scale 0-100
# How it was run: as §3
# [19] = test system: large crabgrass (Digitaria sanguinalis, DIGSA); experiment: as above; conditions: post-emerge, 14 days after application, rating scale 0-100
# How it was run: as §3
# [20] = test system: johnsongrass (Sorghum halepense, SORHA); experiment: as above; conditions: post-emerge, 14 days after application, rating scale 0-100
# How it was run: as §3
# [21] = test system: redroot pigweed (Amaranthus retroflexus, AMARE); experiment: Pre-emerge test, greenhouse herbicide activity screening; conditions: rated 14 days after application, 0 = no damage, 100 = complete death
# How it was run: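 Herbicidal damage is scored 0 (none) to 100 (complete plant death) two weeks after a simulated field spray. Rates span 15–1000 g ai/ha, delivered in acetone at 187 l/ha. For post-emergence treatments, plants have 2–3 leaves and the spray carries 0.25% v/v non-ionic surfactant.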
# [22] = test system: upland rice (Oryza sp., var. Tebonnet, RICE); experiment: Post-emerge test, crop safety; conditions: post-emerge, 14 days after application, rating scale 0-100
# How it was run: as §2
# [23] = test system: field corn (Zea mays L., var. Dekalb 535, CORN); experiment: Post-emerge test, crop safety; conditions: post-emerge, 14 days after application, rating scale 0-100
# How it was run: as §2
smiles,measurement,setting,value
COc1c(Cl)cc(F)c(-n2c(=O)cc(C(F)(F)F)n(C)c2=O)c1NC(=O)c1cccc2ccccc12 [2-74],"Pre-emerge phytotoxicity rating (0-100), crop damage, RICE",[1]; 63 g ai/ha,30
same,"Pre-emerge phytotoxicity rating (0-100), crop damage, RICE",[1]; 250 g ai/ha,60
same,"Pre-emerge phytotoxicity rating (0-100), crop damage, CORN",[2]; 63 g ai/ha,0
same,"Pre-emerge phytotoxicity rating (0-100), crop damage, CORN",[2]; 250 g ai/ha,15
same,"Pre-emerge Herbicidal Activity, phytotoxicity rating (0-100), IPOHE",[3]; 63 g ai/ha,0
same,"Pre-emerge Herbicidal Activity, phytotoxicity rating (0-100), IPOHE",[3]; 250 g ai/ha,50
same,"Pre-emerge Herbicidal Activity, phytotoxicity rating (0-100), ECHCG",[4]; 63 g ai/ha,0
same,"Pre-emerge Herbicidal Activity, phytotoxicity rating (0-100), ECHCG",[4]; 250 g ai/ha,100
same,"Pre-emerge Herbicidal Activity, phytotoxicity rating (0-100), CHEAL",[5]; 63 g ai/ha,100
same,"Pre-emerge Herbicidal Activity, phytotoxicity rating (0-100), CHEAL",[5]; 250 g ai/ha,100
same,"Pre-emerge Herbicidal Activity, phytotoxicity rating (0-100), SETVI",[6]; 63 g ai/ha,70
same,"Pre-emerge Herbicidal Activity, phytotoxicity rating (0-100), SETVI",[6]; 250 g ai/ha,100
same,"Pre-emerge Herbicidal Activity, phytotoxicity rating (0-100), ABUTH",[7]; 63 g ai/ha,100
same,"Pre-emerge Herbicidal Activity, phytotoxicity rating (0-100), ABUTH",[7]; 250 g ai/ha,100
same,"Pre-emerge Herbicidal Activity, phytotoxicity rating (0-100), CASOB",[8]; 63 g ai/ha,40
same,"Pre-emerge Herbicidal Activity, phytotoxicity rating (0-100), CASOB",[8]; 250 g ai/ha,70
same,"Pre-emerge Herbicidal Activity, phytotoxicity rating (0-100), DIGSA",[9]; 63 g ai/ha,20
same,"Pre-emerge Herbicidal Activity, phytotoxicity rating (0-100), DIGSA",[9]; 250 g ai/ha,100
same,"Pre-emerge Herbicidal Activity, phytotoxicity rating (0-100), SORHA",[10]; 63 g ai/ha,0
same,"Pre-emerge Herbicidal Activity, phytotoxicity rating (0-100), SORHA",[10]; 250 g ai/ha,100
same,phytotoxicity rating IPOHE,[11]; 63 g ai/ha,60
same,phytotoxicity rating IPOHE,[11]; 250 g ai/ha,60
same,phytotoxicity rating ECHCG,[12]; 63 g ai/ha,0
same,phytotoxicity rating ECHCG,[12]; 250 g ai/ha,0
same,phytotoxicity rating AMARE,[13]; 63 g ai/ha,95
same,phytotoxicity rating AMARE,[13]; 250 g ai/ha,100
same,phytotoxicity rating AMBEL,[14]; 63 g ai/ha,70
same,phytotoxicity rating AMBEL,[14]; 250 g ai/ha,95
same,phytotoxicity rating CHEAL,[15]; 63 g ai/ha,70
same,phytotoxicity rating CHEAL,[15]; 250 g ai/ha,70
same,phytotoxicity rating SETVI,[16]; 63 g ai/ha,0
same,phytotoxicity rating SETVI,[16]; 250 g ai/ha,20
same,phytotoxicity rating ABUTH,[17]; 63 g ai/ha,100
same,phytotoxicity rating ABUTH,[17]; 250 g ai/ha,100
same,phytotoxicity rating CASOB,[18]; 63 g ai/ha,30
same,phytotoxicity rating CASOB,[18]; 250 g ai/ha,70
same,phytotoxicity rating DIGSA,[19]; 63 g ai/ha,0
same,phytotoxicity rating DIGSA,[19]; 250 g ai/ha,0
same,phytotoxicity rating SORHA,[20]; 63 g ai/ha,0
same,phytotoxicity rating SORHA,[20]; 250 g ai/ha,0
same,"Pre-emerge Herbicidal Activity, phytotoxicity rating (0-100), AMARE",[21]; 63 g ai/ha,100
same,"Pre-emerge Herbicidal Activity, phytotoxicity rating (0-100), AMARE",[21]; 250 g ai/ha,100
same,phytotoxicity rating RICE,[22]; 63 g ai/ha,25
same,phytotoxicity rating RICE,[22]; 250 g ai/ha,50
same,phytotoxicity rating CORN,[23]; 63 g ai/ha,0
same,phytotoxicity rating CORN,[23]; 250 g ai/ha,15
COc1c(Cl)cc(F)c(-n2c(=O)cc(C(F)(F)F)n(C)c2=O)c1NC(=O)c1ccc2c(c1)OCO2 [2-73],"Pre-emerge phytotoxicity rating (0-100), crop damage, RICE",[1]; 63 g ai/ha,80
same,"Pre-emerge phytotoxicity rating (0-100), crop damage, RICE",[1]; 250 g ai/ha,100
same,"Pre-emerge phytotoxicity rating (0-100), crop damage, CORN",[2]; 63 g ai/ha,50
same,"Pre-emerge phytotoxicity rating (0-100), crop damage, CORN",[2]; 250 g ai/ha,95
same,"Pre-emerge Herbicidal Activity, phytotoxicity rating (0-100), IPOHE",[3]; 63 g ai/ha,90
same,"Pre-emerge Herbicidal Activity, phytotoxicity rating (0-100), IPOHE",[3]; 250 g ai/ha,100
same,"Pre-emerge Herbicidal Activity, phytotoxicity rating (0-100), ECHCG",[4]; 63 g ai/ha,90
same,"Pre-emerge Herbicidal Activity, phytotoxicity rating (0-100), ECHCG",[4]; 250 g ai/ha,100
same,"Pre-emerge Herbicidal Activity, phytotoxicity rating (0-100), CHEAL",[5]; 63 g ai/ha,100
same,"Pre-emerge Herbicidal Activity, phytotoxicity rating (0-100), CHEAL",[5]; 250 g ai/ha,100
same,"Pre-emerge Herbicidal Activity, phytotoxicity rating (0-100), SETVI",[6]; 63 g ai/ha,100
same,"Pre-emerge Herbicidal Activity, phytotoxicity rating (0-100), SETVI",[6]; 250 g ai/ha,100
same,"Pre-emerge Herbicidal Activity, phytotoxicity rating (0-100), ABUTH",[7]; 63 g ai/ha,100
same,"Pre-emerge Herbicidal Activity, phytotoxicity rating (0-100), ABUTH",[7]; 250 g ai/ha,100
same,"Pre-emerge Herbicidal Activity, phytotoxicity rating (0-100), CASOB",[8]; 63 g ai/ha,100
same,"Pre-emerge Herbicidal Activity, phytotoxicity rating (0-100), CASOB",[8]; 250 g ai/ha,100
same,"Pre-emerge Herbicidal Activity, phytotoxicity rating (0-100), DIGSA",[9]; 63 g ai/ha,100
same,"Pre-emerge Herbicidal Activity, phytotoxicity rating (0-100), DIGSA",[9]; 250 g ai/ha,100
same,"Pre-emerge Herbicidal Activity, phytotoxicity rating (0-100), SORHA",[10]; 63 g ai/ha,75
same,"Pre-emerge Herbicidal Activity, phytotoxicity rating (0-100), SORHA",[10]; 250 g ai/ha,100
same,phytotoxicity rating IPOHE,[11]; 63 g ai/ha,100
same,phytotoxicity rating IPOHE,[11]; 250 g ai/ha,100
same,phytotoxicity rating ECHCG,[12]; 63 g ai/ha,30
same,phytotoxicity rating ECHCG,[12]; 250 g ai/ha,60
same,phytotoxicity rating AMARE,[13]; 63 g ai/ha,100
same,phytotoxicity rating AMARE,[13]; 250 g ai/ha,100
same,phytotoxicity rating AMBEL,[14]; 63 g ai/ha,100
same,phytotoxicity rating AMBEL,[14]; 250 g ai/ha,100
same,phytotoxicity rating CHEAL,[15]; 63 g ai/ha,70
same,phytotoxicity rating CHEAL,[15]; 250 g ai/ha,95
same,phytotoxicity rating SETVI,[16]; 63 g ai/ha,50
same,phytotoxicity rating SETVI,[16]; 250 g ai/ha,90
same,phytotoxicity rating ABUTH,[17]; 63 g ai/ha,100
same,phytotoxicity rating ABUTH,[17]; 250 g ai/ha,100
same,phytotoxicity rating CASOB,[18]; 63 g ai/ha,60
same,phytotoxicity rating CASOB,[18]; 250 g ai/ha,100
same,phytotoxicity rating DIGSA,[19]; 63 g ai/ha,30
same,phytotoxicity rating DIGSA,[19]; 250 g ai/ha,30
same,phytotoxicity rating SORHA,[20]; 63 g ai/ha,10
same,phytotoxicity rating SORHA,[20]; 250 g ai/ha,50
same,"Pre-emerge Herbicidal Activity, phytotoxicity rating (0-100), AMARE",[21]; 63 g ai/ha,100
same,"Pre-emerge Herbicidal Activity, phytotoxicity rating (0-100), AMARE",[21]; 250 g ai/ha,100
same,phytotoxicity rating RICE,[22]; 63 g ai/ha,20
same,phytotoxicity rating RICE,[22]; 250 g ai/ha,70
same,phytotoxicity rating CORN,[23]; 63 g ai/ha,25
same,phytotoxicity rating CORN,[23]; 250 g ai/ha,50
